Consider 7 compounds from article PMC6199744, “Development of Chemical Proteomics for the Folateome and Analysis of the Kinetoplastid Folateome” (ACS Infectious Diseases, 2018).

Common to all, as to type: binding
Assay [1] concerns the target T1, HeLa cell extract proteins (Homo sapiens, UniProt O00746).
T1 construct: endogenous in cells; host or cells: HeLa cell extract
T1 sequence (O00746 29-187): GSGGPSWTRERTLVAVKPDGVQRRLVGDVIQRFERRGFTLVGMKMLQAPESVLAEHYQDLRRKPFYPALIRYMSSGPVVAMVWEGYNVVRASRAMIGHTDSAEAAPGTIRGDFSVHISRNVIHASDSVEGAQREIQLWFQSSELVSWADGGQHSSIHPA

In assay [2] the target is T2, HeLa cell extract proteins (Homo sapiens, UniProt O95456).
T2 construct: endogenous in cells; host or cells: HeLa cell extract
T2 sequence (O95456 1-288): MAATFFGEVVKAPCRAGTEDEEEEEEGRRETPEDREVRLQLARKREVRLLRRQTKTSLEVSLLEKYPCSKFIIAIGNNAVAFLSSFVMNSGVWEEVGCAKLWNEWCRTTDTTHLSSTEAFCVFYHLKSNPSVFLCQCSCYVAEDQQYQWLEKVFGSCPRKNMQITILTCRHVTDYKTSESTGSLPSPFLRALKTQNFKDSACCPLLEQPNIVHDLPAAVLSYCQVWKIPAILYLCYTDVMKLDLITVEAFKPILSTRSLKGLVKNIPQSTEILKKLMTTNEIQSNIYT

The target in assay [3] is T3, HeLa cell extract proteins (Homo sapiens, UniProt P23396).
T3 construct: endogenous in cells; host or cells: HeLa cell extract

The target of assay [4] is T4, HeLa cell extract proteins (Homo sapiens, UniProt P60981).
T4 construct: endogenous in cells; host or cells: HeLa cell extract
T4 sequence (P60981 1-165): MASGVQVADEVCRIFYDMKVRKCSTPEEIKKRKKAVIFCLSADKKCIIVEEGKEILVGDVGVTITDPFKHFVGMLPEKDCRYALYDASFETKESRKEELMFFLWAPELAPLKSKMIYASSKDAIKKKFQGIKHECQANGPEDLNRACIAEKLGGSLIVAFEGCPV

The target in assay [5] is T5, HeLa cell extract proteins (Homo sapiens, UniProt Q13162).
T5 construct: endogenous in cells; host or cells: HeLa cell extract
T5 sequence (Q13162 38-271): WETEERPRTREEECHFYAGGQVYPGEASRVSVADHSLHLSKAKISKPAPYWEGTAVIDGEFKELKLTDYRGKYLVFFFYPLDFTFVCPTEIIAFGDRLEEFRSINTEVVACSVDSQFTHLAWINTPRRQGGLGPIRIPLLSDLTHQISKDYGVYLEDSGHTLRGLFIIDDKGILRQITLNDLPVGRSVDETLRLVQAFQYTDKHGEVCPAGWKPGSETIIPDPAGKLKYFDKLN

The target of assay [6] is T6, HeLa cell extract proteins (Homo sapiens, UniProt Q9BW27).
T6 construct: endogenous in cells; host or cells: HeLa cell extract
T6 sequence (Q9BW27 1-656): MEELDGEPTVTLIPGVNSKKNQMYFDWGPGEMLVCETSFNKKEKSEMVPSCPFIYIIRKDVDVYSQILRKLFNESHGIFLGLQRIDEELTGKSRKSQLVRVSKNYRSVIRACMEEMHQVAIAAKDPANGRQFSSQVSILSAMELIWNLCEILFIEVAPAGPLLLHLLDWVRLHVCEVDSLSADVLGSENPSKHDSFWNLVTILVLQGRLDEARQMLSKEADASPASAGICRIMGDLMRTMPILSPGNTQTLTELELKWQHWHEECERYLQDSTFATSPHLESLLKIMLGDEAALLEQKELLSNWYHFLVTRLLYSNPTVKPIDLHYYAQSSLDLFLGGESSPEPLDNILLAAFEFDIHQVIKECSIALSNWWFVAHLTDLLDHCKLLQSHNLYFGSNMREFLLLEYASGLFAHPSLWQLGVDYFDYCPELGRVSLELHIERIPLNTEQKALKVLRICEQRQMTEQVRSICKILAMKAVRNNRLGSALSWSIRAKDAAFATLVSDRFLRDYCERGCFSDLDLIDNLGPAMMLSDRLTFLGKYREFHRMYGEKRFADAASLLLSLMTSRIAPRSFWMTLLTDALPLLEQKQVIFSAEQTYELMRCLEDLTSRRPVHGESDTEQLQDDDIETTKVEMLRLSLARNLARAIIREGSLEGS

Assay [7] concerns the target T7, HeLa cell extract proteins (Homo sapiens, UniProt Q9UJP4).
T7 construct: endogenous in cells; host or cells: HeLa cell extract
T7 sequence (Q9UJP4 1-597): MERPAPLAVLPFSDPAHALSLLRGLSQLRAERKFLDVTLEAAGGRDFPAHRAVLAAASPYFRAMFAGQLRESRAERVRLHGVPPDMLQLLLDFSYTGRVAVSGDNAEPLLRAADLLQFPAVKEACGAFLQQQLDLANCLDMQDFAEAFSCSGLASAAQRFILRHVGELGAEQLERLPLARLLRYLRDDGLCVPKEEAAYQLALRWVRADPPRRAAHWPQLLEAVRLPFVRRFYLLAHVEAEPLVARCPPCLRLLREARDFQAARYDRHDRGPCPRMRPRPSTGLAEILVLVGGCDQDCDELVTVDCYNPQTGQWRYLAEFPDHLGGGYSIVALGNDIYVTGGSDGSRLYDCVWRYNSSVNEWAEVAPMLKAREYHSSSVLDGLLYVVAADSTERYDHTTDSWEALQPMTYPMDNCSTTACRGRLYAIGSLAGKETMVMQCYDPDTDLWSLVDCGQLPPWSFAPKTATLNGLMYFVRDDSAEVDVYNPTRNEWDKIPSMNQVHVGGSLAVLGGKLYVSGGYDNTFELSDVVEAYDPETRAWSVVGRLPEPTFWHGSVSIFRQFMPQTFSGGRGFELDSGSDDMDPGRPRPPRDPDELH

Assay [8] has as its target T8, HeLa cell extract proteins (Homo sapiens, UniProt Q9Y244).
T8 construct: endogenous in cells; host or cells: HeLa cell extract
T8 sequence (Q9Y244 1-141): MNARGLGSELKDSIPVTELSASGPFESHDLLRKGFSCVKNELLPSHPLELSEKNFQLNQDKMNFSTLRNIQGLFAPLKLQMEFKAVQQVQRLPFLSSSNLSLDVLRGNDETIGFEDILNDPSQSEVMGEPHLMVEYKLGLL

The target in assay [9] is T9, HeLa cell extract proteins (Homo sapiens, UniProt Q9Y6M0).
T9 construct: endogenous in cells; host or cells: HeLa cell extract

Setting [10] is: HeLa, protein PRDX4 (PEROXIREDOXIN-4).

Like-named read-outs stand apart in the source and are kept apart here.

T9 sequence (Q9Y6M0 42-314): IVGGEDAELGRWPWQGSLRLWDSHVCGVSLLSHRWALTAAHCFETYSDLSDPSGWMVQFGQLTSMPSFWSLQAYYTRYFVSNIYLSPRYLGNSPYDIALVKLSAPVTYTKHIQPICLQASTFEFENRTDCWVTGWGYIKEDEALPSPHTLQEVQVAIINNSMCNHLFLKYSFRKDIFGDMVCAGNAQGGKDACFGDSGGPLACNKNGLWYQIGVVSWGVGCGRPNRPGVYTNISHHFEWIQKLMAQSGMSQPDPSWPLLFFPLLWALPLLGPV

As to `Nc1nc2cccc(-c3ccccc3)c2n1Cc1ccc(Cl)c(Cl)c1` [compound 3], the “fold changes relative to vehicle control” value in [1] (HeLa, protein NME4) worked out at 0.96; in assay [2] (HeLa, protein PSMG1) it was 1.03; in assay [3] (captured protein RPS3, HeLa), 1.03; in [4] (HeLa, protein DSTN (DESTRIN.)) it was 1.09 fold; in assay [5] (HeLa, protein PRDX4), 0.99; in [6] (captured protein NUP85, HeLa), 0.9. In addition, the “fold changes relative to vehicle control” value in assay [7] (HeLa, protein KLHL21) is 1.04; in [8] (captured protein POMP, HeLa) it was 0.86; in [9] (HeLa, protein PRSS21), 1.04.
Consider `NCCOCCOCC(=O)Nc1nc2ncc(CNc3ccc(C(=O)NC(CCC(=O)O)C(=O)O)cc3)nc2c(=O)[nH]1` (stereo not drawn) [compound 6], for which the “fold changes relative to vehicle control” value was 0.81 in assay [1] (HeLa, protein NME4); 0.76 in [2] (HeLa, captured protein PSMG1); 1.11 in assay [3] (HeLa, captured protein RPS3); 1.16 in assay [4] (HeLa, protein DSTN); 0.92 in [5] (setting [10]); 0.93 in [6] (protein NUP85, HeLa). The “fold changes relative to vehicle control” value in assay [7] (HeLa, protein KLHL21) stood at 1; in [8] (protein POMP, HeLa), 0.86; in assay [9] (HeLa, protein PRSS21), 0.96.
For the compound `Nc1nc2[nH]cc(CCc3ccc(C(=O)N[C@@H](CCC(=O)O)C(=O)O)cc3)c2c(=O)[nH]1` [PTX, pemetrexed], the “fold changes relative to vehicle control” value in [1] was found to be 0.81; in assay [2] it was 0.81; in [3] it was 1.18; in [4], 1.05; in [5], 0.96; in assay [6], 0.9. The “fold changes relative to vehicle control” value was 0.95 in assay [7], 0.83 in assay [8] and 0.89 in assay [9].
For the compound `Nc1nc2c(c(=O)[nH]1)N(C=O)C(CNc1ccc(C(=O)N[C@@H](CCC(=O)O)C(=O)O)cc1)CN2` (stereo partly drawn) [LEU, leucovorin], the “fold changes relative to vehicle control” value in [1] (HeLa, protein NME4) is given as 1.04; in assay [2] (HeLa, captured protein PSMG1), 0.9; in [3] (HeLa, captured protein RPS3) it was 1.08; in [4] (HeLa, protein DSTN), 0.96; in assay [5] (setting [10]), 1.09; in assay [6] (protein NUP85, HeLa), 0.82. In addition, the “fold changes relative to vehicle control” value in assay [7] (HeLa, protein KLHL21) is given as 1.02; in assay [8] (protein POMP, HeLa), 0.72; in assay [9] (HeLa, protein PRSS21), 1.
In the case of `CCCCCCOc1ccc(Cc2cnc(N)nc2N)cc1` [compound 1], the “fold changes relative to vehicle control” value in assay [1] (HeLa, protein NME4) amounted to 0.97; in [2] (HeLa, protein PSMG1) it was 0.9; in assay [3] (captured protein RPS3, HeLa), 1.08; in assay [4] (HeLa, protein DSTN (DESTRIN.)) it was 1.28 fold; in [5] (HeLa, protein PRDX4) it was 1.08; in assay [6] (captured protein NUP85, HeLa), 0.93. In addition, the “fold changes relative to vehicle control” value was 1.06 in assay [7] (HeLa, protein KLHL21); 0.66 in assay [8] (captured protein POMP, HeLa); 1.11 in assay [9] (HeLa, protein PRSS21).
As for `NCCCNc1ccc(C(=O)NC(CCC(=O)O)C(=O)O)cc1` (stereo not drawn) [compound 7], the “fold changes relative to vehicle control” value is listed as 0.98 in assay [1] (HeLa, protein NME4); 0.98 in assay [2] (HeLa, captured protein PSMG1); 1.15 in assay [3] (HeLa, captured protein RPS3); 0.91 in assay [4] (HeLa, protein DSTN); 0.99 in [5] (setting [10]); 0.95 in [6] (protein NUP85, HeLa). The “fold changes relative to vehicle control” value was determined as 0.97 in assay [7] (HeLa, protein KLHL21); 0.85 in assay [8] (protein POMP, HeLa); 0.97 in assay [9] (HeLa, protein PRSS21).
With `CCCCCCOc1cccc(Cc2cnc(N)nc2N)c1` [compound 2], the “fold changes relative to vehicle control” value in assay [1] (HeLa, protein NME4) was 0.92; in assay [2] (HeLa, protein PSMG1), 0.91; in assay [3] (captured protein RPS3, HeLa) it was 1.16; in assay [4] (HeLa, protein DSTN (DESTRIN.)), 2.07 fold; in assay [5] (HeLa, protein PRDX4) it was 0.93; in assay [6] (captured protein NUP85, HeLa), 0.96. For the same compound, the “fold changes relative to vehicle control” value stood at 1.01 in assay [7] (HeLa, protein KLHL21); 0.89 in [8] (captured protein POMP, HeLa); 1.18 in [9] (HeLa, protein PRSS21).
